Data reported in patent US20220362282A1, “COMPOSITIONS AND METHODS FOR TREATING EYE DISEASES” (ADS THERAPEUTICS LLC, priority 2019, published 2022).
Values belong to the compound of their own block, whether it stands above or below them.

Assays:
[1] = Screening of CDs and CD derivatives for ability to dissolve cholesterol in water (HPLC); type: physicochemical; conditions: for Ability to dissolve cholesterol in water: CD 1, 10, 20% (w/v); for Concentrations of Cholesterol in CDs Solution: 5 days shaking at ambient
Procedure: Purpose: To determine the level of cholesterol that can be dissolved in water when 10 different CDs and their derivatives were added at three concentrations.
All CD solutions were prepared with starting 20% (w/v) solutions by accurately adding about 800 mg CDs in 4 milliliter water, 1% and 10% were diluted from this 20% solution to 2 mL for each sample preparation experiment.
Cholesterol was added accurately to all CD water solutions at about 40 mg/mL or about 80 mg per 2 mL. This amount of cholesterol was enough to fully saturate the CD solutions with white settlements or floating or both. All samples were conditioned at ambient by shaking using a rotator for 5 days.
After the equilibration with shaking for 5 days at ambient, the clear or semi-clear portion was filtered with 0.2 μm filter. 50 μL of the filtered solution was diluted with 450 μL methanol (10 X) for HPLC analysis. NOVAPAK phenyl column (7.6 cm by 3.9 mm I.D.) was used with a mobile phase of acetonitrile: water (70:30) at a flow rate of 0.5 ml/min and detection at UV at 210 nm.

[2] = cited from earlier work; for Ability to form soluble complex with cholesterol in aqueous solution: 37° C., CDs 1.0 × 10^−2 M; for Increase in Absorbance (600 nm) Due to Cholesterol Dissolved by CDs: Aqueous solution at 37° C., concentration of CDs 1.0 × 10^−2 M
[3] = system: Patients with Primary or Recurrent Pterygium; assay: Phase 2a clinical trial in pterygium patients: Pterygium Symptom and Life Quality (PSLQ) questionnaire scores; type: in vivo, human
From the text: 2-HP-β-CD Formulation I was used as vehicle.
A trend of effects also remained after the stop of treatment at weeks 8, 16, and 24. The other questions didn't generate statistically significant effects.
These ocular symptoms are often observed in MGD patients. Scores of these symptoms were graded by patients as part of PSLQ questionnaires.

pterygium patients = assay: Safety (adverse events) of 10% HP-β-CD vehicle in the Phase 2 pterygium clinical trial; conditions: 10% as vehicle in the Phase 2 pterygium clinical trial
Procedure: The data was derived from the stage 2 of the Phase 2 clinical trial in pterygium patients who were topically administered 10% HP-β-CD as the vehicle of the testing article. The patients were treated for 4 weeks with three-time a day dosing and then followed up for another 20 weeks after the stop of treatment. The safety evaluation included the 20 weeks of non-treatment period.
All safety analyses were conducted on the safety population. MedDRA nomenclature was used to code adverse events. The number and percent of patients reporting adverse events were tabulated based on preferred terms and/or system organ class. Summary tables were generated for all adverse events regardless of causality as well as for treatment-related adverse events.

[4] = Baseline, Modified Intent-to-Treat Population, N = 23
[5] = Week 2, 10% (w/w) TID for 4 weeks, N = 23
[6] = Week 4, 10% (w/w) TID for 4 weeks, N = 23
[7] = Week 8 (after treatment period), N = 23
[8] = Week 16 (after treatment period), N = 23
[9] = Week 24 (after treatment period), N = 23

Compound: 2-hydroxypropyl-alpha-cyclodextrin [HP-ACD, reference compound]
Ability to dissolve cholesterol in water [1]: no detectable cholesterol dissolving activity

Compound: COC[C@H]1O[C@@H]2O[C@H]3[C@H](O)[C@@H](OC)[C@@H](O[C@H]4[C@H](O)[C@@H](OC)[C@@H](O[C@H]5[C@H](O)[C@@H](OC)[C@@H](O[C@H]6[C@H](O)[C@@H](OC)[C@@H](O[C@H]7[C@H](O)[C@@H](OC)[C@@H](O[C@H]8[C@H](O)[C@@H](OC)[C@@H](O[C@H]1[C@H](O)[C@H]2OC)O[C@@H]8COC)O[C@@H]7COC)O[C@@H]6COC)O[C@@H]5COC)O[C@@H]4COC)O[C@@H]3COC [DM-BCD, heptakis (2,6-di-O-methyl)-beta-cyclodextrin]
Concentrations of Cholesterol in CDs Solution ([1]; CD 1% (w/v) in water): 190 µg/mL
Ability to dissolve cholesterol in water [1]: the best
Concentrations of Cholesterol in CDs Solution ([1]; CD 10% (w/v) in water): 5130 µg/mL
Concentrations of Cholesterol in CDs Solution ([1]; CD 20% (w/v) in water): 10430 µg/mL
Ability to form soluble complex with cholesterol in aqueous solution [2]: strong ability
Increase in Absorbance (600 nm) Due to Cholesterol Dissolved by CDs [2]: 0.336

Compound: COC(=O)c1ccc2c(c1)NC(=O)/C2=C(\Nc1ccc(N(C)C(=O)CN2CCN(C)CC2)cc1)c1ccccc1 [Nintedanib, reference compound]
PSLQ ocular symptom score, Nintedanib 0.2% vs Vehicle ([3]; pterygium patients with dry eye condition): no statistically significant differences

Compound: OC[C@H]1O[C@@H]2O[C@H]3[C@H](O)[C@@H](O)[C@@H](O[C@H]4[C@H](O)[C@@H](O)[C@@H](O[C@H]5[C@H](O)[C@@H](O)[C@@H](O[C@H]6[C@H](O)[C@@H](O)[C@@H](O[C@H]7[C@H](O)[C@@H](O)[C@@H](O[C@H]8[C@H](O)[C@@H](O)[C@@H](O[C@H]1[C@H](O)[C@H]2O)O[C@@H]8CO)O[C@@H]7CO)O[C@@H]6CO)O[C@@H]5CO)O[C@@H]4CO)O[C@@H]3CO [BCD, beta-cyclodextrin]
Ability to form soluble complex with cholesterol in aqueous solution [2]: do not form soluble complexes

Compound: OC[C@H]1O[C@@H]2O[C@H]3[C@H](O)[C@@H](O)[C@@H](O[C@H]4[C@H](O)[C@@H](O)[C@@H](O[C@H]5[C@H](O)[C@@H](O)[C@@H](O[C@H]6[C@H](O)[C@@H](O)[C@@H](O[C@H]7[C@H](O)[C@@H](O)[C@@H](O[C@H]1[C@H](O)[C@H]2O)O[C@@H]7CO)O[C@@H]6CO)O[C@@H]5CO)O[C@@H]4CO)O[C@@H]3CO [ACD, alpha-cyclodextrin]
Ability to form soluble complex with cholesterol in aqueous solution [2]: do not form soluble complexes
Increase in Absorbance (600 nm) Due to Cholesterol Dissolved by CDs [2]: 0

Compound: OC[C@H]1O[C@H](O[C@H]2[C@H](O)[C@@H](O)[C@@H](OC[C@H]3O[C@@H]4O[C@H]5[C@H](O)[C@@H](O)[C@@H](O[C@H]6[C@H](O)[C@@H](O)[C@@H](O[C@H]7[C@H](O)[C@@H](O)[C@@H](O[C@H]8[C@H](O)[C@@H](O)[C@@H](O[C@H]9[C@H](O)[C@@H](O)[C@@H](O[C@H]%10[C@H](O)[C@@H](O)[C@@H](O[C@H]3[C@H](O)[C@H]4O)O[C@@H]%10CO)O[C@@H]9CO)O[C@@H]8CO)O[C@@H]7CO)O[C@@H]6CO)O[C@@H]5CO)O[C@@H]2CO)[C@H](O)[C@@H](O)[C@@H]1O [6-AM-BCD, 6-O-alpha-maltosyl-beta-cyclodextrin, reference compound]
Concentrations of Cholesterol in CDs Solution ([1]; CD 1% (w/v) in water): 30 µg/mL
Ability to dissolve cholesterol in water [1]: about half lower
Concentrations of Cholesterol in CDs Solution ([1]; CD 10% (w/v) in water): 2570 µg/mL
Concentrations of Cholesterol in CDs Solution ([1]; CD 20% (w/v) in water): 3380 µg/mL

Compound: 2-Hydroxypropyl-beta-cyclodextrin [2-HP-β-CD]
Safety profile (pterygium patients): excellent safety profile
Concentrations of Cholesterol in CDs Solution ([1]; CD 1% (w/v) in water): 10 µg/mL
Ability to dissolve cholesterol in water [1]: substantial ability
Concentrations of Cholesterol in CDs Solution ([1]; CD 10% (w/v) in water): 820 µg/mL
Concentrations of Cholesterol in CDs Solution ([1]; CD 20% (w/v) in water): 2980 µg/mL
PSLQ scores compared to the baseline ([3]; 2-HP-β-CD-treated group, N = 23): significant improvements
Magnitude of reduction in PSLQ ocular symptom score, dry eye vs no dry eye patients ([3]; 10%, pterygium patients with vs without dry eye condition): statistically significant bigger
PSLQ Average Ocular Symptom Score, Mean (SD) [3, 4]: 0.88 (0.81)
PSLQ Average Quality of Life Impact Score, Mean (SD) [3, 4]: 0.57 (0.92)
PSLQ Average Vision-Related Functioning Score, Mean [3, 4]: 0.57
PSLQ Overall Average Score, Mean (SD) [3, 4]: 0.70 (0.66)
PSLQ Average Ocular Symptom Score, Change from Baseline, Mean (SD) [3, 5]: −0.36 (0.69)
PSLQ Average Quality of Life Impact Score, Change from Baseline, Mean (SD) [3, 5]: −0.19 (0.39)
PSLQ Average Vision-Related Functioning Score, Change from Baseline, Mean [3, 5]: −0.27
PSLQ Overall Average Score, Change from Baseline, Mean (SD) [3, 5]: −0.28 (0.45)
PSLQ Average Ocular Symptom Score, Change from Baseline, Mean (SD) [3, 6]: −0.46 (0.71)
PSLQ Average Quality of Life Impact Score, Change from Baseline, Mean (SD) [3, 6]: −0.19 (0.50)
PSLQ Average Vision-Related Functioning Score, Change from Baseline, Mean [3, 6]: −0.48
PSLQ Overall Average Score, Change from Baseline, Mean (SD) [3, 6]: −0.35 (0.51)
PSLQ Average Ocular Symptom Score, Change from Baseline, Mean (SD) [3, 7]: −0.39 (0.84)
PSLQ Average Quality of Life Impact Score, Change from Baseline, Mean (SD) [3, 7]: −0.17 (0.52)
PSLQ Average Vision-Related Functioning Score, Change from Baseline, Mean [3, 7]: −0.43
PSLQ Overall Average Score, Change from Baseline, Mean (SD) [3, 7]: −0.30 (0.55)
PSLQ Average Ocular Symptom Score, Change from Baseline, Mean (SD) [3, 8]: −0.29 (0.79)
PSLQ Average Quality of Life Impact Score, Change from Baseline, Mean (SD) [3, 8]: −0.13 (0.68)
PSLQ Average Vision-Related Functioning Score, Change from Baseline, Mean [3, 8]: −0.23
PSLQ Overall Average Score, Change from Baseline, Mean (SD) [3, 8]: −0.20 (0.64)
PSLQ Average Ocular Symptom Score, Change from Baseline, Mean (SD) [3, 9]: −0.33 (0.90)
PSLQ Average Quality of Life Impact Score, Change from Baseline, Mean (SD) [3, 9]: −0.15 (0.59)
PSLQ Average Vision-Related Functioning Score, Change from Baseline, Mean [3, 9]: −0.11
PSLQ Overall Average Score, Change from Baseline, Mean (SD) [3, 9]: −0.22 (0.73)
Ability to form soluble complex with cholesterol in aqueous solution [2]: only a weak ability
Increase in Absorbance (600 nm) Due to Cholesterol Dissolved by CDs [2]: 0.01

Compound: OC[C@H]1O[C@@H]2O[C@H]3[C@H](O)[C@@H](O)[C@@H](O[C@H]4[C@H](O)[C@@H](O)[C@@H](O[C@H]5[C@H](O)[C@@H](O)[C@@H](O[C@H]6[C@H](O)[C@@H](O)[C@@H](O[C@H]7[C@H](O)[C@@H](O)[C@@H](O[C@H]8[C@H](O)[C@@H](O)[C@@H](O[C@H]9[C@H](O)[C@@H](O)[C@@H](O[C@H]1[C@H](O)[C@H]2O)O[C@@H]9CO)O[C@@H]8CO)O[C@@H]7CO)O[C@@H]6CO)O[C@@H]5CO)O[C@@H]4CO)O[C@@H]3CO [GCD, gamma-cyclodextrin]
Ability to form soluble complex with cholesterol in aqueous solution [2]: do not form soluble complexes
Increase in Absorbance (600 nm) Due to Cholesterol Dissolved by CDs [2]: 0

Results, then the compound that gave them:

Ability to dissolve cholesterol in water [1]: extremely low levels
Concentrations of Cholesterol in CDs Solution ([1]; CD 10% (w/v) in water): 3 µg/mL
Concentrations of Cholesterol in CDs Solution ([1]; CD 20% (w/v) in water): 11 µg/mL
Compound: 2-hydroxypropyl-gamma-cyclodextrin [HP-GCD, reference compound]

Concentrations of Cholesterol in CDs Solution ([1]; CD 1% (w/v) in water): 2 µg/mL
Concentrations of Cholesterol in CDs Solution ([1]; CD 10% (w/v) in water): 30 µg/mL
Concentrations of Cholesterol in CDs Solution ([1]; CD 20% (w/v) in water): 150 µg/mL
Compound: sulfobutylated beta-cyclodextrin [SBE-BCD]

Concentrations of Cholesterol in CDs Solution ([1]; CD 1% (w/v) in water): 150 µg/mL
Ability to dissolve cholesterol in water [1]: the best
Concentrations of Cholesterol in CDs Solution ([1]; CD 10% (w/v) in water): 6030 µg/mL
Concentrations of Cholesterol in CDs Solution ([1]; CD 20% (w/v) in water): 14200 µg/mL
Compound: random methyl-beta-cyclodextrin [M-BCD]
